Here are results for 17 molecules from patent publication US20260363243A1 (priority 2022, published 2026).

Where two headings read alike, the source gives them in different places.

Assay [1] concerns cucumber downy mildew. Description: Activity in vivo for inhibiting cucumber downy mildew (potting method, greenhouse).
Source text: The test and investigation method refers to a SOP-SC-1098 cucumber downy mildew potting method in the fungicide section of Standard operation Specification for testing biological Activity of pesticides written by Kang Zhuo and Gu Baogen.
Assay [2] has as its system Phytophthora infestans. Description: microbe, parasite or virus in culture. The format is cell-based.
The subject of assay [3] is Phytophthora capsici. As to the kind of experiment: In vitro inhibition of hypha growth of oomycete pathogens (microplate, OD595): Phytophthora capsici. In kind it is cell-based.
Assay [4] deals with Phytophthora nicotianae. Description: In vitro inhibition of hypha growth of oomycete pathogens (microplate, OD595): Phytophthora nicotianae. The format is cell-based.
Assay [5] deals with Phytophthora sojae. As to the kind of experiment: In vitro inhibition of hypha growth of oomycete pathogens (microplate, OD595): Phytophthora sojae. The format is cell-based.
Assay [6] relates to cucumber downy mildew. Conditions: Table 3, data from Li, J. L. et al. 2020, cited from earlier work.
Where [7] appears, read: read-out: inhibitory activity on hypha growth.
[8] abbreviates: 0.005 mg/L, re-screening, Table 2.
Where [9] appears, read: 0.02 mg/L, re-screening, Table 2.
[10] abbreviates: 0.078 mg/L, re-screening, Table 2.
Setting [11] is: 0.312 mg/L, re-screening, Table 2.
The mark [12] stands for this setting: 1.25 mg/L, re-screening, Table 2.
Setting [13] is: Phytophthora nicotianae, read-out: inhibitory activity on hypha growth.

On to `COC(OC)C(C(=O)N1CCC(c2nc(C3=NOC(c4c(F)cccc4F)C3)cs2)CC1)c1ccccc1` (stereo not drawn) [II-10], for which, in assay [1] (20 mg/L, Table 1), the Control effect result is on record as “D (45%≤D<60%)”.

On to `CC1(CC(=O)N2CCC(c3nc(C4=NOC(c5c(F)cccc5F)C4)cs3)CC2)OCCO1` (stereo not drawn) [II-11], for which the Control effect entry in assay [1] (1.25 mg/L, Table 1) is listed as “D (45%≤D<60%)”; in assay [1] (5 mg/L, Table 1), “C (60%≤C<75%)”; in assay [1] (20 mg/L, Table 1), “A (90%≤A≤100%)”.

Turning to `CC1COC(C)(CC(=O)N2CCC(c3nc(C4=NOC(c5c(F)cccc5F)C4)cs3)CC2)O1` (stereo not drawn) [II-12], the Control effect result in assay [1] (5 mg/L, Table 1) is “D (45%≤D<60%)”; in assay [1] (20 mg/L, Table 1) it was “A (90%≤A≤100%)”.

For `COC(CC(=O)N1CCC(c2nc(C3=NOC(c4c(F)cccc4F)C3)cs2)CC1)OCC(F)(F)F` (stereo not drawn) [II-18], the “inhibitory activity compared with OXA” value is recorded as “comparable to that of the control agent OXA” in assay [2] (5, 0.5 and 0.05 mg/L, in words); “comparable to that of the control agent OXA” in assay [3] (5, 0.5 and 0.05 mg/L, in words); “comparable to that of the control agent OXA” in assay [4] (Pythium nicotianae, 5, 0.5 and 0.05 mg/L, in words); “comparable to that of the control agent OXA” in assay [5] (5, 0.5 and 0.05 mg/L, in words). Also, the inhibition at 0.005 µg/mL in assay [2] (setting [7]) is 90 to 100%; in assay [3] (setting [7]) it was 90 to 100%; in assay [4] (setting [13]), 75 to 90%; in assay [5] (setting [7]) it was 90 to 100%. In addition, the inhibition at 0.05 µg/mL in assay [2] (setting [7]), in assay [3] (setting [7]), in assay [4] (setting [13]) and in assay [5] (setting [7]) was 90 to 100% each time. In addition, the inhibition at 0.5 µg/mL in assay [2] (setting [7]), in assay [3] (setting [7]), in assay [4] (setting [13]) and in assay [5] (setting [7]) was 90 to 100% throughout. The inhibition at 5 µg/mL in assay [2] (setting [7]), in assay [3] (setting [7]), in assay [4] (setting [13]) and in assay [5] (setting [7]) was 90 to 100% each time. For the same molecule, the “efficacy compared with OXA” value in assay [1] (0.005 mg/L, in words) is “comparable to that of the control agent OXA”. Also, the Control effect result was “A (90%≤A≤100%)” in assay [1] (setting [8]); “A (90%≤A≤100%)” in assay [1] (setting [9]); at least 90% in assay [1] (0.078 mg/L, re-screening); “A (90%≤A≤100%)” in assay [1] (setting [10]); “A (90%≤A≤100%)” in assay [1] (setting [11]); “A (90% ≤ A ≤ 100%)” in assay [1] (0.625 mg/L, Table 3). In addition, the Control effect entry in assay [1] (1.25 mg/L, Table 1) is “A (90%≤A≤100%)”; in assay [1] (setting [12]), “A (90%≤A≤100%)”; in assay [1] (2.5 mg/L, Table 3) it was “A (90% ≤ A ≤ 100%)”; in assay [1] (5 mg/L, Table 1), “A (90%≤A≤100%)”; in assay [1] (10 mg/L, Table 3) it was “A (90% ≤ A ≤ 100%)”; in assay [1] (20 mg/L, Table 1), “A (90%≤A≤100%)”. Moreover, the “efficacy compared with dimethomorph and cyazofamid” value in assay [1] (0.078 mg/L, in words) was “superior to that of dimethomorph and cyazofamid”. In assay [1] (0.078 mg/L, in words), the “efficacy compared with oxathiapiprolin” value is on record as “equivalent to that of oxathiapiprolin at the same concentration”. For the same molecule, the bactericidal activity entry in assay [1] (re-screening, in words) is recorded as “excellent bactericidal activity”.

With `CCOC(CC(=O)N1CCC(c2nc(C3=NOC(c4c(F)cccc4F)C3)cs2)CC1)OCC(F)(F)F` (stereo not drawn) [II-19], the Control effect result was “B (75%≤B<90%)” in assay [1] (setting [8]); “A (90%≤A≤100%)” in assay [1] (setting [9]); at least 90% in assay [1] (0.078 mg/L, re-screening); “A (90%≤A≤100%)” in assay [1] (setting [10]); “A (90%≤A≤100%)” in assay [1] (setting [11]); “A (90% ≤ A ≤ 100%)” in assay [1] (0.625 mg/L, Table 3). Also, the Control effect entry in assay [1] (1.25 mg/L, Table 1) was “A (90%≤A≤100%)”; in assay [1] (setting [12]), “A (90%≤A≤100%)”; in assay [1] (2.5 mg/L, Table 3) it was “A (90% ≤ A ≤ 100%)”; in assay [1] (5 mg/L, Table 1), “A (90%≤A≤100%)”; in assay [1] (10 mg/L, Table 3), “A (90% ≤ A ≤ 100%)”; in assay [1] (20 mg/L, Table 1), “A (90%≤A≤100%)”. The “efficacy compared with dimethomorph and cyazofamid” value in assay [1] (0.078 mg/L, in words) is “superior to that of dimethomorph and cyazofamid”. In assay [1] (0.078 mg/L, in words), the “efficacy compared with oxathiapiprolin” value is on record as “equivalent to that of oxathiapiprolin at the same concentration”. Moreover, in assay [1] (re-screening, in words), the bactericidal activity result is “excellent bactericidal activity”.

For the molecule `O=C(CC1OCCCO1)N1CCC(c2nc(C3=NOC(c4c(F)cccc4F)C3)cs2)CC1` (stereo not drawn) [II-21], the Control effect result in assay [1] (1.25 mg/L, Table 1) was “D (45%≤D<60%)”; in assay [1] (5 mg/L, Table 1), “B (75%≤B<90%)”; in assay [1] (20 mg/L, Table 1), “A (90%≤A≤100%)”.

With `O=C(CC1OCCO1)N1CCC(c2nc(C3=NOC(c4c(F)cccc4F)C3)cs2)CC1` (stereo not drawn) [II-22], the Control effect result is reported as “D (45%≤D<60%)” in assay [1] (5 mg/L, Table 1) and “A (90%≤A≤100%)” in assay [1] (20 mg/L, Table 1).

Regarding `O=C(CC1OCCCCO1)N1CCC(c2nc(C3=NOC(c4c(F)cccc4F)C3)cs2)CC1` (stereo not drawn) [II-28], the Control effect entry in assay [1] (5 mg/L, Table 1) is on record as “C (60%≤C<75%)”; in assay [1] (20 mg/L, Table 1), “C (60%≤C<75%)”.

Turning to `CC(C)CCC(=O)N1CCC(c2nc(C3=NOC(c4c(F)cccc4F)C3)cs2)CC1` (stereo not drawn) [comparative 1], the Control effect result is “E (0% ≤ E < 45%)” in assay [6] (0.625 mg/L), “B (75% ≤ B < 90%)” in assay [6] (2.5 mg/L) and “B (75% ≤ B < 90%)” in assay [6] (10 mg/L).

With `CC/C=C/CC(=O)N1CCC(c2nc(C3=NOC(c4c(F)cccc4F)C3)cs2)CC1` (stereo not drawn) [comparative 2], the Control effect result in assay [6] (0.625 mg/L) was “D (45% ≤ D < 60%)”; in assay [6] (2.5 mg/L), “B (75% ≤ B < 90%)”; in assay [6] (10 mg/L), “A (90% ≤ A ≤ 100%)”.

Take `CC/C(C)=C/CC(=O)N1CCC(c2nc(C3=NOC(c4c(F)cccc4F)C3)cs2)CC1` (stereo not drawn) [comparative 3]: the figures for the Control effect entry in assay [6] (0.625 mg/L), in assay [6] (2.5 mg/L) and in assay [6] (10 mg/L) were “E (0% ≤ E < 45%)”, “C (60% ≤ C < 75%)” and “A (90% ≤ A ≤ 100%)”, respectively.

For the molecule `O=C(CCO)N1CCC(c2nc(C3=NOC(c4c(F)cccc4F)C3)cs2)CC1` (stereo not drawn) [comparative 4], the Control effect entry in assay [6] (0.625 mg/L) is on record as “E (0% ≤ E < 45%)”; in assay [6] (2.5 mg/L), “E (0% ≤ E < 45%)”; in assay [6] (10 mg/L) it was “D (45% ≤ D < 60%)”.

For `O=C(CC1CCCCC1)N1CCC(c2nc(C3=NOC(c4c(F)cccc4F)C3)cs2)CC1` (stereo not drawn) [comparative 5], the Control effect entry in assay [6] (0.625 mg/L) was “E (0% ≤ E < 45%)”; in assay [6] (2.5 mg/L), “D (45% ≤ D < 60%)”; in assay [6] (10 mg/L), “A (90% ≤ A ≤ 100%)”.

As to `O=C(CN1CCCCC1)N1CCC(c2nc(C3=NOC(c4c(F)cccc4F)C3)cs2)CC1` (stereo not drawn) [comparative 6], the Control effect result in assay [6] (0.625 mg/L), in assay [6] (2.5 mg/L) and in assay [6] (10 mg/L) was “E (0% ≤ E < 45%)” throughout.

Regarding `O=C(CN1CCCC(O)C1)N1CCC(c2nc(C3=NOC(c4c(F)cccc4F)C3)cs2)CC1` (stereo not drawn) [comparative 7], the Control effect entry in assay [6] (0.625 mg/L), in assay [6] (2.5 mg/L) and in assay [6] (10 mg/L) was “E (0% ≤ E < 45%)” throughout.

Turning to `Cc1ccc(-c2c(Cl)nc(C#N)n2S(=O)(=O)N(C)C)cc1` [cyazofamid, reference compound], the Control effect result in assay [1] (setting [9]) is on record as “E (0%≤E<45%)”; in assay [1] (setting [10]) it was “B (75%≤B<90%)”; in assay [1] (setting [11]) it was “A (90%≤A≤100%)”; in assay [1] (setting [12]) it was “A (90%≤A≤100%)”.

Turning to `COc1ccc(C(=CC(=O)N2CCOCC2)c2ccc(Cl)cc2)cc1OC` [dimethomorph, reference compound], the Control effect result in assay [1] (setting [9]) is listed as “C (60%≤C<75%)”; in assay [1] (setting [10]) it was “B (75%≤B<90%)”; in assay [1] (setting [11]), “A (90%≤A≤100%)”; in assay [1] (setting [12]), “A (90%≤A≤100%)”.
